“Also recorded” adds a separate entry of the source.
Assays:
Type in all cases: cell-based, human
explants of dermal scars = assay: Organ culture of skin explants (histochemistry, insoluble elastin); conditions: 200 μM SA
Protocol: Organ culture of skin explants—Fragments of normal skin, stretch-marked skin and dermal scars collected during plastic surgery procedures were cut into multiple 4 mm2 pieces and maintained for 7 days in DMEM medium containing 5% FBS, […] The parallel quadruplicate explants from each experimental group were additionally maintained in the presence 2 μCi of [3H]-valine/ml and then subjected to the assay of insoluble elastin. The parallel explants from each experimental groups were also evaluated after pentachrome Movat's staining which allows for clear marking of elastic fibers. In each experimental group, 50 sections derived from quadruplicate explants were analyzed.

normal skin explants = assay: Organ culture of skin explants (Movat pentachrome morphometry, insoluble elastin); conditions: 200 μM, 10-day-long daily treatment
Protocol: Organ culture of skin explants—Fragments of normal skin, stretch-marked skin and dermal scars collected during […] 5% FBS, in the presence or absence of 200 μM SA alone or in combination with 200 μM DMOG as described in figure legends. The parallel quadruplicate explants from each experimental group were additionally maintained in the presence 2 μCi of [3H]-valine/ml and then subjected to the assay of insoluble elastin. The parallel explants from each experimental groups were also evaluated after pentachrome Movat's staining which allows for clear marking of elastic fibers. In each experimental group, 50 sections derived from quadruplicate explants were analyzed.

tropoelastin mRNA = assay: RT-PCR of tropoelastin mRNA normalized to GAPDH mRNA; conditions: 50-200 μM, 18 hours, medium with 5% FBS
Protocol: One-Step RT-PCR Analysis—The confluent cultures of skin fibroblasts were treated with or without the reagents of interest for different periods of time as indicated in the figure legend. Total RNA was extracted using the RNeasy Mini Kit, and the one-step RT-PCR reactions were set up with the RT-PCR Kit, according to the manufacturer's (Qiagen, Mississauga, ON) instructions. The amounts of tropoelastin mRNA were always normalized to the amount of GAPDH mRNA.

[1] = tested on: reactive oxygen species (ROS); assay: Intracellular ROS with CM-H2DCFDA probe (fluorescence microscope, flow cytophotometry); conditions: 100 μM, 2 hours
Protocol: Quantification of Intracellular free radicals-reactive oxygen species (ROS)—To assess the levels of ROS, quadruplicate cultures of normal skin fibroblasts were exposed to 10 μM of ROS-sensitive CM-H2DCFDA fluorescent probe (Molecular Probes, Eugene, Oreg.) for 30 minutes. This probe passively diffuses into the cell interior and only upon oxidation is a fluorescent product released that can be visualized under a fluorescent microscope or captured by flow cytophotometry when excited at 480 nm. Fibroblasts were then maintained for 30 minutes in the presence or absence of 400 μM probenecid, then incubated either for 2 or 24 hours with and without 100 μM AA or 100 μM SA. At the end of these periods the images were captured using a fluorescent microscope under identical parameters of contrast and brightness. The ROS production was also assessed by flow cytophotometry (λ excitation 480 nm; λ emission 520 nm), using FACSCalibur, Beckton Dickinson Instrument.

[2] = tested on: normal dermal fibroblasts; assay: Elastic fiber deposition (immuno-staining morphometry, [3H]-valine insoluble elastin) in monolayer cultures
Protocol: Cell Cultures—Fibroblasts initially grew out from the explants of these full thickness skin biopsies and were maintained. The primary cultures of fat-derived fibroblasts obtained from Thermogenesis (Rancho Cordova, Calif.) were also tested. In all described experiments, 2-4 passages of both kinds of fibroblasts were used. In experiments aimed at assessing ECM production, cells were initially plated at a concentration of 100,000 cells/dish.
Immuno-staining—All cultures maintained in the presence and absence of indicated reagents were either fixed in cold 100% methanol at −20° C. (for detection of elastin) or in 4% paraformaldehyde at room temperature (for detection of collagen I). The multiple parallel cultures were then incubated with 10 μg/ml of polyclonal antibody to tropoelastin (Elastin Products, Owensville, Mich.), or polyclonal antibody to collagen type I (Chemicon, Temecula, Calif.). Cultures were then incubated with the respective fluorescein-conjugated goat anti-rabbit, goat anti-mouse, or rabbit anti-goat secondary antibodies. Nuclei were counterstained with propidium iodide (Sigma, Sigma, St. Louis, Mo.). All of the cultures were then examined with a Nikon Eclipse E1000 microscope attached to a cooled CCD camera (QImaging, Retiga EX) and analyzed by the computer-generated morphometric analysis system (Image-Pro Plus software, Media Cybernetics, Silver Springs, Md.) as previously described.
Quantitative Assays of Insoluble Elastin—Fibroblasts were grown to confluency in 35-mm culture dishes (100,000 cells/dish). Next, 2 μCi of [3H]-valine/ml (Amersham Biosciences Ltd. Oakville, Canada), were added to each dish along with or without the indicated treatments. At the end of each experiment, the levels of metabolically labeled NaOH-insoluble elastin present in individual cultures were assayed and normalized per their DNA content.

[3] = tested on: fibroblasts derived from dermal stretch marks; assay: Collagen and elastic fiber deposition in stretch-mark fibroblast cultures; conditions: 200 μM, 24 hour-old cultures
Protocol: Cell Cultures-Fibroblasts initially grew out from the explants of these full thickness skin biopsies and were maintained. The primary cultures of fat-derived fibroblasts obtained from Thermogenesis (Rancho Cordova, Calif.) were also tested. In all described experiments, 2-4 passages of both kinds of fibroblasts were used. In experiments aimed at assessing ECM production, cells were initially plated at a concentration of 100,000 cells/dish. […] Immuno-staining-All cultures maintained in the presence and absence of indicated reagents were either fixed in cold 100% methanol at -20° C. (for detection of elastin) or in 4% paraformaldehyde at room temperature (for detection of collagen I). The multiple parallel cultures were then incubated with 10 μg/ml of polyclonal antibody to tropoelastin (Elastin Products, Owensville, Mich.), or polyclonal antibody to collagen type I (Chemicon, Temecula, Calif.). Cultures were then incubated with the respective fluorescein-conjugated goat anti-rabbit, goat anti-mouse, or rabbit anti-goat secondary antibodies. Nuclei were counterstained with propidium iodide (Sigma, Sigma, St. Louis, Mo.). All of the cultures were then examined with a Nikon Eclipse […] microscope attached to a cooled CCD camera (QImaging, Retiga EX) and analyzed by the computer-generated morphometric analysis system (Image-Pro Plus software, Media Cybernetics, Silver Springs, Md.) as previously described. Quantitative Assays of Insoluble Elastin-Fibroblasts were grown to confluency in 35-mm culture dishes (100,000 cells/dish). Next, 2 μCi of [3H]-valine/ml (Amersham Biosciences Ltd. Oakville, Canada), were added to each dish along with or without the indicated treatments. At the end of each experiment, the levels of metabolically labeled NaOH-insoluble elastin present in individual cultures were assayed and normalized per their DNA content.

`O=C1O[C@H]([C@@H](O)CO)C([O-])=C1O.[Na+]` [SA, (+)-sodium L-ascorbate] was tested, and the “production of new elastic fibers” value (explants of dermal scars) was “initiated production of new elastic fibers”, the “deposition of new elastic fibers” value (normal skin explants) was “enhanced deposition of new elastic fibers” and the “levels of tropoelastin-encoding mRNA” value (tropoelastin mRNA) was “significant and dose-dependent up-regulation”. For the same compound, the “levels of intracellular ROS” value [1] was “significantly lower levels of ROS”, the “production of immuno-detectable elastic fibers” value ([2]; 50 μM to 200 μM, 24-hour-old cultures, 5% FBS) was “significantly stimulated production of immuno-detectable elastic fibers; also recorded: upregulate production of elastic fibers” and the “elastin deposition, SA added to IGF-1” value ([2]; 100 μM SA added to 50 ng/ml IGF-1) was “significantly up-regulated the levels of elastin deposition”. The “elastogenesis, SA added to dexamethasone” value ([2]; 100 μM SA added to 1 μM dexamethasone) was “did not further enhance the increase in elastogenesis”, the “elastogenesis / net deposition of new elastic fibers” value ([2]; 100 μM alone, 24 hours, 5% FBS) was “remarkable up-regulation in the net deposition of new elastic fibers; also recorded: similarly strong elastogenic effects as treatment with 50 ng/ml of exogenous IGF-1; also recorded: upregulates elastogenesis only in cultures of dermal fibroblasts maintained in media containing 5% FBS” and the “deposition of elastic fibers” value ([2]; 400 μM, 24-hour-old cultures, 5% FBS) was “did not further stimulate deposition of elastic fibers”. The elastogenesis ([2]; 800 μM, 24-hour-old cultures, 5% FBS) was “clear inhibition of elastogenesis; also recorded: inhibits elastogenesis”, the “elastogenic effects in serum-free medium” value ([2]; SA, 18-24 hour-old cultures, serum-free medium) was “could not be observed in cultures maintained in serum-free medium” and the “production of collagen fibers” value [3] was “significantly up-regulated”. The “production of elastic fibers / elastogenesis” value [3] was “significantly up-regulated”.

From patent US20130184337A1, “SODIUM ASCORBATE STIMULATION OF ELASTOGENESIS” (THE HOSPITAL FOR SICK CHILDREN, priority 2012, published 2013)
